According to article PMC10569036:

What was measured:
[1] = shake flask on a mixture of 185; loss from the water phase only; LC-QTOF peak areas; details: room
[2] = shake flask on a mixture of 185; loss from the water phase only; LC-Orbitrap peak areas; details: room

| Compound | log partition 1-octanol / HPLC water, unbuffered, traces of methanol / DMSO [1] [log10] | log partition butyl acetate / HPLC water, unbuffered, traces of methanol / DMSO [1] [log10] | log partition chloroform / HPLC water, unbuffered, traces of methanol / DMSO [1] [log10] | log partition dichloromethane / HPLC water, unbuffered, traces of methanol / DMSO [1] [log10] | log partition oleylalcohol / HPLC water, unbuffered, traces of methanol / DMSO [1] [log10] | log partition toluene / HPLC water, unbuffered, traces of methanol / DMSO [1] [log10] | log partition 1-octanol / HPLC water, unbuffered, traces of methanol / DMSO [2] [log10] | log partition butyl acetate / HPLC water, unbuffered, traces of methanol / DMSO [2] [log10] | log partition chloroform / HPLC water, unbuffered, traces of methanol / DMSO [2] [log10] | log partition dichloromethane / HPLC water, unbuffered, traces of methanol / DMSO [2] [log10] | log partition oleylalcohol / HPLC water, unbuffered, traces of methanol / DMSO [2] [log10] | log partition toluene / HPLC water, unbuffered, traces of methanol / DMSO [2] [log10] | log partition cyclohexane / HPLC water, unbuffered, traces of methanol / DMSO [1] [log10] | log partition n-hexane / HPLC water, unbuffered, traces of methanol / DMSO [1] [log10] | log partition n-octane / HPLC water, unbuffered, traces of methanol / DMSO [1] [log10] | log partition n-undecane / HPLC water, unbuffered, traces of methanol / DMSO [1] [log10] | log partition cyclohexane / HPLC water, unbuffered, traces of methanol / DMSO [2] [log10] | log partition n-hexane / HPLC water, unbuffered, traces of methanol / DMSO [2] [log10] | log partition n-octane / HPLC water, unbuffered, traces of methanol / DMSO [2] [log10] | log partition n-undecane / HPLC water, unbuffered, traces of methanol / DMSO [2] [log10] |
| --- | --- | --- | --- | --- | --- | --- | --- | --- | --- | --- | --- | --- | --- | --- | --- | --- | --- | --- | --- | --- |
| COC(=O)C(C)N(C(=O)c1ccco1)c1c(C)cccc1C (stereo not drawn) | 2.113 | 2.322 | 2.434 | 2.829 | 2.215 | 2.516 | 1.653 | 2.039 | 1.758 | 1.796 | 1.315 | 1.918 | – | – | – | – | – | – | – | – |
| OCCN(CCO)c1ccccc1 | 0.7171 | 0.3605 | -0.02211 | 0.1152 | 0.6347 | -1.086 | 0.493 | 0.5439 | 0.2882 | 0.4782 | 0.1818 | -0.4224 | -1.946 | -1.82 | -2.014 | -1.783 | -0.9006 | -1.209 | -0.9336 | -1.048 |
| CN(C1CCCCC1)S(=O)(=O)c1ccccc1N | -0.8134 | 0.2235 | 0.4748 | 0.1793 | -0.9123 | -0.3194 | 1.192 | 0.997 | 0.5005 | 1.312 | 1.252 | 0.9027 | -0.5397 | -0.5682 | -0.5115 | -0.8537 | 0.7696 | 0.8609 | 0.7922 | 0.7687 |
| C[C@H](CCC(=O)O)[C@H]1CC[C@H]2[C@@H]3CC[C@@H]4C[C@H](O)CC[C@]4(C)[C@H]3CC[C@]12C | 0.06003 | -0.5367 | 0.5205 | 0.7072 | -0.1203 | -1.053 | 1.225 | 0.9932 | 1.423 | 0.6345 | -0.1437 | 0.6204 | -1.544 | -1.606 | -1.699 | -0.8435 | 0.1846 | -0.08609 | 0.2702 | 0.118 |
